We go through six molecules from US9322049B2, “Activation and activators of SirT6” (CORNELL UNIVERSITY, priority 2009, dated 2016).

In data set [1] the target is T1, SirT6 (Homo sapiens, UniProt Q8N6T7).
T1 construct: The protein expression and purification were the same as the full length SIRT6 as described above; made in house; host or cells: E. coli BL21 Codon-plus RIPL
Description: Activation of SIRT6 by nucleosides or nucleotides, HPLC of AADPR (Example 8). The class given is biochemical. To be noted: 800 μM NAD+, 500 μM H3 peptide, 11.3 μM SIRT6. The method, then:
Reactions containing 800 μM NAD^+, 500 μM H3 peptide, and 100 mM phosphate buffer at pH 7.5, with varying concentrations of nucleosides or nucleotides were initiated by addition of SIRT6 enzyme to a concentration of 11.3 μM. Reactions were incubated for 2 hours at 37° C. and quenched by addition of trifluoroacetic acid to pH 2. After centrifugation to remove precipitates, reactions were injected on HPLC for activity analysis. Production of 2′- and 3′-AADPR were analyzed at 260 nm.

For a further data set, the target named is T2, SirT6-DNA complex (Homo sapiens, UniProt Q8N6T7).
T2 construct: The protein expression and purification were the same as the full length SIRT6 as described above; made in house; host or cells: E. coli BL21 Codon-plus RIPL
T2 sequence (Q8N6T7 whole entry, one chain of several): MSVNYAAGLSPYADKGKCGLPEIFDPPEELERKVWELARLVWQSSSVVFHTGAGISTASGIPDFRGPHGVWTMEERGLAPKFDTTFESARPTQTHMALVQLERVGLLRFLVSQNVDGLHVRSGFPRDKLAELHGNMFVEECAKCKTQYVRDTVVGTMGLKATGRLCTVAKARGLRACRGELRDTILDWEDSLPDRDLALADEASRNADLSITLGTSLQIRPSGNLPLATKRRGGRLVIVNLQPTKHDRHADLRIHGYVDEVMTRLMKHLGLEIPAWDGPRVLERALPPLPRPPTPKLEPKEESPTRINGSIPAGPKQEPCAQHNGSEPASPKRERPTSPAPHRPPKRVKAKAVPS
Description: Suramin competition with binding of linearized DNA to SIRT6 (Example 6). As to conditions: for Kd: read-out: Kd of suramin for dissociation of linearized DNA from SirT6. On the procedure: The linearized DNA was incubated with SirT6 and Ni-NTA resin. The resin was washed as described in Materials and Methods, and the complex of SirT6-DNA was dissociated by 1 mM suramin. The parallel experiments were done in the presence of 500 uM H3 peptide. DNA bound to SirT6 was quantified and fit to Michaelis-Menten equation to get Kd of DNA binding to the enzyme. […] The single stranded DNA was incubated with SirT6 and Ni-NTA resin. The resin was washed and the complex of SirT6-ssDNA was dissociated by 1 mM suramin. The parallel experiments were done in the presence of 500 uM H3 peptide. […] The linearized DNA was incubated with SirT6 and Ni-NTA resin with or without H3 peptide. After washing, the resin was incubated with different concentration of surmain. The dissociated DNA was quantified by gel electrophoresis. […] After the resin was washed, DNA was dissociated with 1 mM suramin and quantified by gel electrophoresis. Lane 1, 150 ng circular pSTBlue (C-pSTBlue); Lane 2, 150 ng pSTBlue cut with BamHI (B-pSTBlue); Lane 3, 150 ng pSTBlue cut with EcoRV (E-pSTBlue); Lane 4, circular pSTBlue bound to SirT6; Lane 5, pSTBlue cut with BamHI bound to SirT6; Lane 6, pSTBlue cut with EcoRV bound to SirT6; Lane 7, circular pSTBlue bound to SirT6 in the presence of H3; Lane 8, pSTBlue cut with BamHI bound to SirT6 in the presence of H3; Lane 9, pSTBlue cut with EcoRV bound to SirT6 in the presence of H3; Lane 10, DNA ladder.
In order to test if suramin competed with the binding of DNA to SIRT6, 20 ng/μl pSTBlue was incubated with 5 μM SIRT6, 25% slurry Ni-NTA resin, and/or 1 mM H3 peptide. After incubation for 1 hour at room temperature, the SIRT6-DNA-resin complex was washed with 10 and 20 mM imidazole, 100 mM phosphate buffer, pH 7.5 as described above. The SIRT6-DNA-resin complex was incubated with different concentrations of suramin. The dissociated DNA was then quantified by 0.8% agarose gel electrophoresis and the DNA level was fitted to Michaelis-Menten equation using the software Kaleidagraph.

The target of data set [2] is T1, SirT6. As to the kind of experiment: Determination of Kd of suramin for SirT6 activation by HPLC (Example 1). The class given is biochemical. The method, then: FIG. 2C depicts the determination of Kd of suramin for activation of SirT6. […] After 2 hours incubation at 37° C., the deacetylated H3 was separated from H3 by gradient (0˜30%) acetonitrile in 0.1% TFA using a C18 column, and analyzed by integrating its area at 215 nm wavelength.
The precipitated proteins and other insolubles were removed by centrifugation at 15,000 rpm for 5 minutes. The peptides were separated by a Waters Xterra RP-18 column using a gradient of 0-30% acetonitrile in 0.1% trifluoroacetic acid. […] The turnover rates versus […] were plotted and fitted to the equation: Activation (Fold)=1+m*x/(Kd+x) using the software Kaleidagraph.

Data set [3] addresses T3, truncated SirT6 (deletion of N terminal 17 amino acids) (Homo sapiens, UniProt Q8N6T7).
T3 construct: The truncated SIRT6 was cloned similarly with the full length SIRT6; poly-histidine (pET28a) (N); made in house; host or cells: E. coli BL21 Codon-plus RIPL
As to the kind of experiment: Deacetylation rate of truncated SirT6 with suramin or single stranded DNA. The class given is biochemical. To be noted: 50 μM suramin or 100 ng/μl single stranded DNA; 800 μM NAD, 480 μM H3, 10 μM enzyme. The source says: The deacetylation rate of different truncated SirT6 was normalized to the rate of full length SirT6 for the comparison.
The truncated SIRT6 was cloned similarly with the full length SIRT6. The primers used in the cloning of different truncated SIRT6 are the following: SIRT6Δ2-7 Forward 5′ GCTAGC ATGGGGCTGTCGCCGTACGCG 3′ (SEQ ID NO: 4); SIRT6Δ2-12 Forward 5′ GCTAGC ATG […] 3′ (SEQ ID NO: 5); SIRT6Δ2-18 Forward 5′ GCTAGC ATGGGCCTCCCGGAGATCTTCGAC 3′ (SEQ ID NO: 6); SIRT6Δ2-51 Forward 5′ 5′ GCTAGC ATGACGGGTGCCGGCATCAGCACT 3′ (SEQ ID NO: 7). The common reverse primer is 5′[…] 3′ (SEQ ID NO: 8). The truncated SIRT6 was amplified by PCR reaction. The PCR product was then ligated into pSTblue-1 (Novagen). After digestion with NheI and BamHI, the fragment containing SIRT6 gene was ligated into pET28a vector (Novagen). The SIRT6 truncated sequence in pET28a plasmid was confirmed by DNA sequencing, and the plasmid was then transformed into BL21Codon-plus RIPL cells (Stratagene). The protein expression and purification were the same as the full length SIRT6 as described above.

Data set [4] has as its target T1, SirT6. Description: Gel shift assay of DNA association to SirT6 (Example 5). The class given is binding. To be noted: 1 mM suramin; 50 ng/μl linearized pSTBlue, 10 μM SirT6. The method, then:
Lane 1, DNA+NAD; Lane 2, DnA+H3; Lane 3, DNA+NAD+H3; Lane 4, DNA+SirT6; Lane 5, DNA+NAD+SirT6; Lane 6, DNA+H3+SirT6; Lane 7, DNA+NAD+H3+SirT6; Lane 8, DNA+SirT6+1 mM suramin; Lane 9, DNA+NAD+SirT6+1 mM suramin; Lane 10, DNA+H3+SirT6+1 mM suramin; Lane 11, DNA+NAD+H3+SirT6+1 mM suramin; Lane 12, DNA only. […] Lane 1, DNA+H3; Lane 2, DNA+H4; Lane 3, DNA+SirT6; Lane 4, DNA+H3+SirT6; Lane 5, DNA+H4+SirT6; Lane 6, DNA+NAD+H3+SirT6; Lane 7, DNA+NAD+H4+SirT6; Lane 8, DNA+SirT6+1 mM suramin; Lane 9, DNA+H3+SirT6+1 mM suramin; Lane 10, DNA+H4+SirT6+1 mM suramin; Lane 11, DNA+NAD+H3+SirT6+1 mM suramin; Lane 12, DNA+NAD+H4+SirT6+1 mM suramin; Lane 13, DNA only. 6 μl of each sample involving 50 ng/μl linearized pSTBlue plasmid, 800 μM NAD, 10 μM SirT6, 480 μM H3/H4, and/or 1 mM suramin were loaded to 0.6% native agarose gel containing ethidium bromide and ran at 100 V for one and half hours. DNA bound to SirT6 stayed in the wells and free DNA ran to the bottom of the gel. The top arrow indicated the large complex formed by DNA and SirT6.
The plasmid pSTBlue was linearized by EcoRI, BamHI, or EcoRV, and then purified by DNA gel extraction kit (Novagen) or […]™ III kit (MP Biomedicals, LLC). 6 μl of each sample contained 50 ng/μl of linearized pSTBlue, 800 μM NAD, 10 μM SirT6/truncated form, 480 μM H3, and/or 1 mM suramin as indicated. […]

Data set [5] has as its target T1, SirT6. Description: Determination of Kd of DNA for SirT6 activation by HPLC (Example 2). The class given is biochemical. To be noted: 800 μM NAD, 480 μM H3, 10 μM SirT6, 2 hours 37° C.; unit given as mM. The method, then: FIG. 5A depicts a schematic of DNA structure. […] After 2 hours incubation at 37° C., either the deacetylated H3 was separated from H3 in the reaction containing the digested calf thymus DNA or AADPR was separated from other components in the reaction containing ssDNA, the plasmid, or dsDNA.
The plasmid pSTBlue was digested with BamHI and EcoRV and purified by […]™ III kit. […] The AADPR was separated by HPLC and the quantified data were fit into Michaelis-Menten equation to get Km of H3.
In the enzymatic reaction, the following DNA was used.
Calf thymus DNA (USB Corporation), which was digested with EcoRI and then purified using Spinprep Gel DNA Kit (Novagen);
ssDNA (5′ […] 3′ (SEQ ID NO: 9), Integrated DNA Technologies);
dsDNA (forward 5′ […] 3′ (SEQ ID NO: 10), reverse 5′ […] 3′ (SEQ ID NO: 11), Integrated DNA Technologies); and
pSTBlue plasmid, which was amplified using DH5α cells and purified by WIZARD™ PLUS (Midiprep) DNA purification system (Promega).
The precipitated proteins and other insolubles were removed by centrifugation at 15,000 rpm for 5 minutes. DNA in the supernatant was further removed by centrifugation at 15,000 rpm for 10 minutes using Microcon with 10 kDa cutoff (Millipore). In the experiment with the digested calf thymus DNA, the peptides were separated by a Waters Xterra RP-18 column using a gradient of 0-30% acetonitrile in 0.1% trifluoroacetic acid. […]

Like-named read-outs stand apart in the source and are kept apart here. Some results are limits rather than exact numbers.

T1 sequence (Q8N6T7 whole entry): as the sequence (Q8N6T7 whole entry, one chain of several) above
T3 sequence (Q8N6T7 with tags, fused parts or gaps): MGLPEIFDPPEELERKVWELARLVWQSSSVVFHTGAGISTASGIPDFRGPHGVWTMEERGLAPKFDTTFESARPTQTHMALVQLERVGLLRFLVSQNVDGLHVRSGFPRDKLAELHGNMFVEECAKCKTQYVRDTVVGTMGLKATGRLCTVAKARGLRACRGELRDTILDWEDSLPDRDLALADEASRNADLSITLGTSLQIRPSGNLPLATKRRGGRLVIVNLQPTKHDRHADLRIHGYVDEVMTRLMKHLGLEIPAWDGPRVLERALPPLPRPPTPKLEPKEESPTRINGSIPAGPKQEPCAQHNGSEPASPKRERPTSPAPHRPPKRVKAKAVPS

`NC(=O)c1ccc[n+]([C@@H]2O[C@H](CO)[C@@H](O)C2(F)F)c1` [gem-diF-NR, 1-(2′-deoxy-2′,2′-difluoro-ribofuranosyl)-nicotinamide] returned an SIRT6 activated at SirT6 [1] (at 500 μM) of 30% activated at 500 μM.

For the molecule `NC(=O)c1ccc[n+]([C@@H]2O[C@H](CO)C(O)C2(Cl)Cl)c1` (stereo partly drawn) [gem-diCl-NR], the SIRT6 activated at SirT6 [1] (at 1 mM) stood at 30% activated at 1 mM.

In turn, `NC(=O)c1ccc[n+]([C@@H]2O[C@H](COP(=O)([O-])O)C(O)C2(Cl)Cl)c1` (stereo partly drawn) [gem-diCl-NMN] registered an SIRT6 activated on SirT6 [1] (at 500 μM) of 90% activated at 500 μM.

On SirT6 [1] (at 550 μM), `NC(=O)c1ccc[n+]([C@@H]2O[C@H](CO)[C@H](O)C2F)c1` (stereo partly drawn) [ribo-F-NR, 1-(2-deoxy-2-fluoro-D-ribofuranosyl)-nicotinamide] showed an SIRT6 activated of 17% activated at 550 μM.

In the case of `Cc1ccc(C(=O)Nc2ccc(S(=O)(=O)O)c3cc(S(=O)(=O)O)cc(S(=O)(=O)O)c23)cc1NC(=O)c1cccc(NC(=O)Nc2cccc(C(=O)Nc3cc(C(=O)Nc4ccc(S(=O)(=O)O)c5cc(S(=O)(=O)O)cc(S(=O)(=O)O)c45)ccc3C)c2)c1` [suramin], the “Vmax of dissociated DNA” value on SirT6-DNA complex (in the absence of H3) came out at 6.37 ng/µL; at SirT6-DNA complex (in the presence of H3) it was 17.8 ng/µL. Besides, the Kd at SirT6-DNA complex (in the absence of H3) came out at 72.4 µM; on SirT6-DNA complex (in the presence of H3), 129 µM; at SirT6 [2], 54.7 µM. In addition, the “Activation of truncated SirT6 deacetylation” value in data set [3] is recorded as “lost of activation”. The “Association of DNA to SirT6” value on SirT6 [4] is “weakened”.

B1: dsDNA: dsDNA, forward SEQ ID NO: 10, reverse SEQ ID NO: 11, Integrated DNA Technologies (nucleic acid)
sense: AAGCATTTATCAGGGTTATTGTCTCATGAGCGGAT
antisense: ATCCGCTCATGAGACAATAACCCTGATAAATGCTT
modifications: DNA, backbone and methylation of C not given here
As for B1, the Kd with SirT6 [5] is greater than 10 mM.

One may read the Kd as the free concentration of one partner at which half of the binding sites on the other are occupied at equilibrium, for simple one-to-one binding.
